From publication PMC11990322, “Cholinium-Based Ionic Liquids Modulate Protein Stability: A Comparative Study of Enzymes and Albumins” (Molecules, 2025)

How the values were obtained:
α-chymotrypsin = target: T1, α-chymotrypsin (Bos taurus, UniProt P00766); assay: Trp fluorescence quenching, double-log plot; type: binding; conditions: 10 mM PBS, 1 mg/mL enzyme, excitation 295 nm
T1 construct: docking model 1YPH agrees
Source text: Trp fluorescence quenching, double-log plot on α-chymotrypsin

lysozyme = target: T2, lysozyme (Gallus gallus, UniProt P00698); assay: Trp fluorescence quenching, double-log plot; type: binding; conditions: 10 mM PBS, 1 mg/mL enzyme, excitation 295 nm
T2 construct: gene LYZ; docking model 6LYZ and six Trp agree
Source text: Trp fluorescence quenching, double-log plot on lysozyme

T2 sequence (P00698 19-147): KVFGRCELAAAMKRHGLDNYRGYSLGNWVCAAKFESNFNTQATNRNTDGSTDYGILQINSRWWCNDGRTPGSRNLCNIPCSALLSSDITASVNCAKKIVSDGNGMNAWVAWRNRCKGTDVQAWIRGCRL

Row | SMILES | Kb/M^-1 a (α-chymotrypsin; n = 1.19, ion-pair salt titrated as ligand) | Kb/M^-1 a (lysozyme; n = 1.15, ion-pair salt titrated as ligand) | Kb/M^-1 a (α-chymotrypsin; n = 1.40, ion-pair salt titrated as ligand, ligand perturbs the tertiary structure) | Kb/M^-1 a (lysozyme; n = 0.99, ion-pair salt titrated as ligand, ligand unfolds the tertiary structure)
1 | C[N+](C)(C)CCO.O=C([O-])CCC(=O)O [[Ch][Suc]] | 30.95 ± 5.69 M⁻¹ | 31.64 ± 6.01 M⁻¹ | – | –
2 | CC(C)[C@H](N)C(=O)O [[Ch][Val]] | – | – | 280.6 ± 30.05 M⁻¹ | 73.84 ± 10.34 M⁻¹
